Activity calls are given as the source filed them.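 How the source made its calls: active means a response that changes with dose, reported with a potency and a percent of the peak acetylcholine response; inactive means the rest.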
Target: Muscarinic acetylcholine receptor M1 (Rattus norvegicus) (UniProt P08482)
Experiment: rat M1 muscarinic receptor PAM counter-screen, SAR follow-up, selectivity assay for M4 PAM optimization project, CHO cells, Fluo-4 calcium, ACh EC20 (AID 623940)
Settings: CHO rat M1, Fluo-4 calcium, ACh EC20 potentiation; for percent of ACh max response: at 30 µM (top of the series)

Muscarinic acetylcholine receptor M1 (Rattus norvegicus), sequence (P08482 whole entry, looked up): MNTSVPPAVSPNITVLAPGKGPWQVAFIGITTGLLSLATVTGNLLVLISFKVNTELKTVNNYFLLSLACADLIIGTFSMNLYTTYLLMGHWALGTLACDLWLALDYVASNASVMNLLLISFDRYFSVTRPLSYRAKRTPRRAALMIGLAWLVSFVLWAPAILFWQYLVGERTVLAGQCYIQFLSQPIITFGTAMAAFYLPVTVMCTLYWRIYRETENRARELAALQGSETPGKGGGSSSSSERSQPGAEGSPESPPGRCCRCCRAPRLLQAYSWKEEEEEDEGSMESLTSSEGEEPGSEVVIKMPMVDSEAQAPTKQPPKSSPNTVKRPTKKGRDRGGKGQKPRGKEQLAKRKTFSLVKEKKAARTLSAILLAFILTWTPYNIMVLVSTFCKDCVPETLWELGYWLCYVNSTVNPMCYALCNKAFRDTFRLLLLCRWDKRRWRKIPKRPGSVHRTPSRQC

Row | outcome | percent of ACh max response | SMILES | other results
1 | inactive |  | Cc1nc2sc(C(=O)NCc3ccccc3)c(N)c2c(C)c1Cl | 
2 |  | inactive | Cc1nc2sc(C(=O)NCc3ccncn3)c(N)c2c(C)c1Cl | 
3 |  | inactive | Cc1nc2sc(C(=O)NCc3cccc(F)c3F)c(N)c2c(C)c1Cl | 
4 |  | inactive | COc1ccc(C)c2sc(NC(=O)c3ccncc3)nc12 | 
5 | inactive |  | Cc1nc2sc(C(=O)NCc3ccc4c(c3)OCO4)c(N)c2c(C)c1Cl | 
6 |  |  | Cc1nc2sc(C(=O)NC3CC3)c(N)c2c(C)c1Cl | EC50: 943 nM
7 | inactive |  | Cc1nc2sc(C(=O)NCc3cccnc3)c(N)c2c(C)c1Cl | 
8 | inactive |  | Cc1nc2sc(C(=O)NCc3ccncc3)c(N)c2c(C)c1Cl | 
9 |  | inactive | Cc1nc2sc(C(=O)NCc3nccs3)c(N)c2c(C)c1Cl | 
10 |  | inactive | Cc1nc2sc(C(=O)NCCc3ccncc3)c(N)c2c(C)c1Cl | 

Reference: PubChem BioAssay AID623940 (Vanderbilt Specialized Chemistry Center, 2012)
